Where two headings read alike, the source gives them in different places.
Assays:
[1] = system: SNRPN; test: RNA-sequencing of Angelman syndrome iPSC neurons: SNRPN; type: cell-based, human; conditions: 30 μM; six days post-treatment; RNA-seq
Method: RNA was isolated using Qiagen RNAeasy Plus (74136, Qiagen, Hilden, Germany). RNA concentration was determined using Qubit Fluorometric Quantitation (Thermo Fisher Scientific) and RNA quality was assessed using a 4200 Agilent TapeStation (Agilent, Santa Clara, Calif.). RNA-sequencing libraries were generated using the Illumina TruSeq Stranded Total RNA kit (20020597, Illumina, Inc., San Diego, Calif.) according to the manufacturer's protocol. 75 base-pair paired-end sequencing was performed using a NextSeq 500 (IIlumina, San Diego, Calif.) at the Texas A&M Institute for Genome Sciences and Society Genomics core. Raw sequencing reads were processed using CASAVA. The resulting FASTQ sequences were examined using FASTQC. […]
To determine whether ASO-4.4.PS.L and ASO-6.1.PO-1.O affect the levels of RNA transcripts encoded by the PWS polycistronic transcript, RNA-sequencing was performed on AS iPS cells treated with each ASO and the steady state RNA levels of SNURF, SNRPN, the SNORD116 host-gene transcript (SNHG116), the SNORD116 snoRNAs, IPW, the SNORD115 host-gene transcript (SNHG115), the SNORD115 snoRNAs, and UBE3A-AS were quantified. UBE3A steady state RNA levels were also measured. […]

[2] = system: UBE3A-AS; test: UBE3A-AS steady state RNA (qRT-PCR) in glutamatergic iPSC-derived neurons; type: cell-based, human; conditions: for 30 μM (Mean), normalized UBE3A-AS RNA level relative to vehicle / Emax Estimate (normalized UBE3A-AS RNA level relative to vehicle): 14 DIV to 20 DIV
Method: ASO-4 and ASO-6.1 were also examined in glutamatergic iPSC-derived neurons. Glutamatergic iPSC-derived neurons were treated at 14 DIV with a 10-point ½ log dose response curve of ASO-4 and ASO-6.1 [1 nM, 3 nM, 10 nM, 30 nM, 100 nM, 300 nM, 1 μM, 3 μM, 10 μM, and 30 μM (n=3)]. At 20 DIV, the IC50 and Emax of each ASO was estimated as described above (FIG. 5E-F and Table 15).
GABAergic and glutamatergic induced pluripotent stem cell (iPSC) derived neural precursor cells (NRC-100-010-001 and GNC-301-030-001, Cellular Dynamics International, Madison Wis.) were differentiated into neurons according to the manufactures protocol. Briefly, neural precursor cells were thawed and resuspended in chemically defined medium and added to sterile-culture plates coated with poly-D-lysine and laminin. The medium was replaced 24 hr after plating and then one-half of the medium was replaced every 3-5 days afterwards.
For cultured iPSC-derived neurons, RNA isolation and cDNA synthesis were performed using the Cell-to-CT kit (Thermo Fisher Scientific) in a lysate volume of 55 μl.
The steady state RNA levels of target transcripts were measured using TaqMan quantitative reverse-transcription PCR (qRT-PCR) assays. Total reaction volume was 10 uL, including 2 μl of cDNA, 1× Gene Expression Master mix (4369016, Thermo Fisher Scientific, Waltham, Mass.), and 1× TaqMan primer assay (Thermo Fisher Scientific). Cycling conditions were 2 minutes at 50° C., 10 minutes at 95° C., and 40 cycles of 15 seconds at 95° C. and 1 minute at 60° C., with readings taken at the 60° C. step of every cycle. Reactions were run on a BIO-RAD T1000 CFX96 thermocycler (Bio-Rad Laboratories, Hercules Calif.), with internal control (PPIA, Hs99999904_m1, Thermo Fisher Scientific) and target [UBE3A-AS, Hs01372957_m1; SNORD116-11, Hs04275268_gH; SNORD115, Hs04275288_gH; IPW, Hs03455409_s1; SNORD109A/B, AP47WVR (Thermo Fisher Scientific); UBE3A: forward […] (SEQ ID NO:500); reverse: […] (SEQ ID NO:501); and, probe: […] (SEQ ID NO:502)] reactions performed together. Data was retrieved and analyzed with the BIORAD CFX Maestro software (Bio-Rad Laboratories). Samples with internal control Cq values ≥30 were filtered. Quality of data was visually inspected to identify discrepancies between technical and/or plate replicates. Measurements for inferential statistics and descriptive statistics consist of ΔΔCq values (2^−ΔΔCq=2^−(Cq[target]−Cq[internal control])−(Cq[target]−Cq[internal control])).

[3] = parallel model, 4 Parameter logistic, read-out: IC50 (M), UBE3A-AS
[4] = treated 14 DIV, RNA 20 DIV, 10-point dose curve, full model, 4-parameter logistic (Hill), read-out: IC50 Estimate, UBE3A-AS

IC50 [2, 3]	IC50 [2, 4]	Substance	Difference, SNRPN RNA level relative to vehicle [1]	30 μM (Mean), normalized UBE3A-AS RNA level relative to vehicle [2]	Emax Estimate (normalized UBE3A-AS RNA level relative to vehicle) ([2]; 4-parameter logistic (Hill))	Relative Potency ([2]; parallel model, relative to ASO-4 = 1)
–	–	C^O*U^O*G^O*G^O-t*g*t*c*a*a*c*a*a*g-C^O*C^O*A^O*A^o [ASO-6.1.PO-1.O]	0.03	–	–	–
3.06e-06 M	0.000121 M	U^O*A^O*G^O*A^O*A^O*t*g*g*c*a*c*a*t*c*t*C^O*U^O*U^O*G^O*G^O [ASO-4]	–	0.17	−1.45	1
–	–	A^L*G^L*A^L*a*t*g*g*c*a*c*a*t*c*t*5mC^L*T^L*T^L*G^L (NNNATGGCACATCTNNNN; LNA gapmer, PS, 5-methylcytosine, chemistry not fully specified) [ASO-4.4.PS.L]	−0.02	–	–	–
7.8e-07 M	2.44e-07 M	C^O*U^O*G^O*G^O*t*g*t*c*a*a*c*a*a*g*C^O*C^O*A^O*A^O [ASO-6.1]	–	0.04	−0.27	–

— patent US11198869B2, “Angelman syndrome antisense treatment” (The Texas A&M University System, priority 2017, dated 2021)
